Source: PubChem BioAssay (NCI)
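Growth conditions: 96-well plates. Treatment: test compound, 48 hours, 5 concentrations. Analysis: linear interpolation between bracketing concentrations; unreached endpoints set to highest concentration. TGI: total growth inhibition.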

Tests used:
Test in all cases: inhibition of tumour cell growth, NCI panel, 48 h
LOX IMVI melanoma = system: LOX IMVI melanoma
CAKI-1 renal = system: CAKI-1 renal
MDA-N = system: MDA-N
U251 CNS = system: U251 CNS
ACHN renal = system: ACHN renal
SK-MEL-2 melanoma = system: SK-MEL-2 melanoma
K-562 leukemia = system: K-562 leukemia
OVCAR-3 ovarian = system: OVCAR-3 ovarian
SN12C renal = system: SN12C renal
PC-3 prostate = system: PC-3 prostate
RXF 393 renal = system: RXF 393 renal
SNB-19 CNS = system: SNB-19 CNS
SK-OV-3 ovarian = system: SK-OV-3 ovarian
UACC-257 melanoma = system: UACC-257 melanoma
UACC-62 melanoma = system: UACC-62 melanoma
HCT-15 colon = system: HCT-15 colon
SR leukemia = system: SR leukemia
MALME-3M melanoma = system: MALME-3M melanoma
A498 renal = system: A498 renal
SW-620 colon = system: SW-620 colon
M14 melanoma = system: M14 melanoma
OVCAR-5 ovarian = system: OVCAR-5 ovarian
MDA-MB-231 breast = system: MDA-MB-231 breast
NCI-H460 lung = system: NCI-H460 lung
MOLT-4 leukemia = system: MOLT-4 leukemia
IGROV1 ovarian = system: IGROV1 ovarian
T-47D breast = system: T-47D breast
HL-60(TB) leukemia = system: HL-60(TB) leukemia
HCC-2998 colon = system: HCC-2998 colon
RPMI-8226 leukemia = system: RPMI-8226 leukemia
BT-549 breast = system: BT-549 breast
MCF7 breast = system: MCF7 breast
SNB-75 CNS = system: SNB-75 CNS
DU-145 prostate = system: DU-145 prostate
786-0 renal = system: 786-0 renal
UO-31 renal = system: UO-31 renal
NCI-H522 lung = system: NCI-H522 lung
SK-MEL-5 melanoma = system: SK-MEL-5 melanoma
KM12 colon = system: KM12 colon
NCI-H23 lung = system: NCI-H23 lung
MDA-MB-435 = system: MDA-MB-435
SF-268 CNS = system: SF-268 CNS
HCT-116 colon = system: HCT-116 colon
HOP-92 NSCLC = system: HOP-92 NSCLC
COLO 205 colon = system: COLO 205 colon
SF-539 CNS = system: SF-539 CNS
EKVX NSCLC = system: EKVX NSCLC
NCI-H226 lung = system: NCI-H226 lung
A549 NSCLC = system: A549 NSCLC
HT29 colon = system: HT29 colon
OVCAR-4 ovarian = system: OVCAR-4 ovarian
SK-MEL-28 melanoma = system: SK-MEL-28 melanoma
NCI/ADR-RES ovarian = system: NCI/ADR-RES ovarian
OVCAR-8 ovarian = system: OVCAR-8 ovarian
HOP-62 NSCLC = system: HOP-62 NSCLC
HS 578T breast = system: HS 578T breast
SF-295 CNS = system: SF-295 CNS
CCRF-CEM leukemia = system: CCRF-CEM leukemia
TK-10 renal = system: TK-10 renal

N=c1oc2ccc(Cl)cc2cc1C(=O)NCc1ccccc1
TGI (LOX IMVI melanoma): > 100 µM | TGI (CAKI-1 renal): > 100 µM | TGI (MDA-N): > 100 µM | TGI (U251 CNS): > 100 µM | TGI (ACHN renal): > 100 µM | TGI (SK-MEL-2 melanoma): > 100 µM | TGI (K-562 leukemia): > 70.4 µM | TGI (OVCAR-3 ovarian): > 100 µM | TGI (SN12C renal): > 100 µM | TGI (PC-3 prostate): > 100 µM | TGI (RXF 393 renal): > 100 µM | TGI (SNB-19 CNS): > 100 µM | TGI (SK-OV-3 ovarian): > 100 µM | TGI (UACC-257 melanoma): > 100 µM | TGI (UACC-62 melanoma): > 100 µM | TGI (HCT-15 colon): > 100 µM | TGI (SR leukemia): > 100 µM | TGI (MALME-3M melanoma): > 100 µM | TGI (A498 renal): > 100 µM | TGI (SW-620 colon): > 100 µM | TGI (M14 melanoma): > 100 µM | TGI (OVCAR-5 ovarian): > 100 µM | TGI (MDA-MB-231 breast): > 100 µM | TGI (NCI-H460 lung): > 100 µM | TGI (MOLT-4 leukemia): > 56.7 µM | TGI (IGROV1 ovarian): > 100 µM | TGI (T-47D breast): > 100 µM | TGI (HL-60(TB) leukemia): 36.8 µM | TGI (HCC-2998 colon): > 100 µM | TGI (RPMI-8226 leukemia): > 100 µM | TGI (BT-549 breast): > 100 µM | TGI (MCF7 breast): > 100 µM | TGI (SNB-75 CNS): > 95 µM | TGI (DU-145 prostate): > 100 µM | TGI (786-0 renal): > 100 µM | TGI (UO-31 renal): > 100 µM | TGI (NCI-H522 lung): > 100 µM | TGI (SK-MEL-5 melanoma): > 100 µM | TGI (KM12 colon): > 100 µM | TGI (NCI-H23 lung): > 100 µM | TGI (MDA-MB-435): > 100 µM | TGI (SF-268 CNS): > 100 µM | TGI (HCT-116 colon): > 100 µM | TGI (HOP-92 NSCLC): > 100 µM | TGI (COLO 205 colon): > 100 µM | TGI (SF-539 CNS): > 100 µM | TGI (EKVX NSCLC): > 100 µM | TGI (NCI-H226 lung): > 100 µM | TGI (A549 NSCLC): > 100 µM | TGI (HT29 colon): > 100 µM | TGI (OVCAR-4 ovarian): > 100 µM | TGI (SK-MEL-28 melanoma): > 100 µM | TGI (NCI/ADR-RES ovarian): > 100 µM | TGI (OVCAR-8 ovarian): > 100 µM | TGI (HOP-62 NSCLC): > 100 µM | TGI (HS 578T breast): > 80.5 µM | TGI (SF-295 CNS): > 100 µM | TGI (CCRF-CEM leukemia): > 54 µM | TGI (TK-10 renal): > 100 µM

COC1(OC)C2(Cl)C(Cl)=C(Cl)C1(Cl)C1COCC12 (stereo not drawn)
TGI (LOX IMVI melanoma): > 100 µM | TGI (CAKI-1 renal): > 100 µM | TGI (MDA-N): > 100 µM | TGI (U251 CNS): > 75 µM | TGI (ACHN renal): > 100 µM | TGI (SK-MEL-2 melanoma): > 100 µM | TGI (K-562 leukemia): > 100 µM | TGI (OVCAR-3 ovarian): > 100 µM | TGI (SN12C renal): > 100 µM | TGI (PC-3 prostate): > 100 µM | TGI (RXF 393 renal): > 100 µM | TGI (SNB-19 CNS): > 100 µM | TGI (SK-OV-3 ovarian): > 100 µM | TGI (UACC-257 melanoma): > 100 µM | TGI (UACC-62 melanoma): > 100 µM | TGI (HCT-15 colon): > 100 µM | TGI (SR leukemia): > 100 µM | TGI (MALME-3M melanoma): > 100 µM | TGI (A498 renal): > 100 µM | TGI (SW-620 colon): > 100 µM | TGI (M14 melanoma): > 100 µM | TGI (OVCAR-5 ovarian): > 100 µM | TGI (MDA-MB-231 breast): > 100 µM | TGI (NCI-H460 lung): > 100 µM | TGI (MOLT-4 leukemia): > 100 µM | TGI (IGROV1 ovarian): > 100 µM | TGI (T-47D breast): > 100 µM | TGI (HL-60(TB) leukemia): > 100 µM | TGI (HCC-2998 colon): > 100 µM | TGI (RPMI-8226 leukemia): > 100 µM | TGI (BT-549 breast): > 100 µM | TGI (MCF7 breast): > 100 µM | TGI (SNB-75 CNS): > 100 µM | TGI (DU-145 prostate): > 100 µM | TGI (786-0 renal): > 100 µM | TGI (UO-31 renal): > 100 µM | TGI (NCI-H522 lung): > 100 µM | TGI (SK-MEL-5 melanoma): > 100 µM | TGI (KM12 colon): > 100 µM | TGI (NCI-H23 lung): > 71.2 µM | TGI (MDA-MB-435): > 69.4 µM | TGI (SF-268 CNS): > 100 µM | TGI (HCT-116 colon): > 100 µM | TGI (HOP-92 NSCLC): > 100 µM | TGI (COLO 205 colon): > 100 µM | TGI (SF-539 CNS): > 100 µM | TGI (EKVX NSCLC): > 100 µM | TGI (NCI-H226 lung): > 100 µM | TGI (A549 NSCLC): > 100 µM | TGI (HT29 colon): > 100 µM | TGI (OVCAR-4 ovarian): > 100 µM | TGI (SK-MEL-28 melanoma): > 55.4 µM | TGI (NCI/ADR-RES ovarian): > 100 µM | TGI (OVCAR-8 ovarian): > 100 µM | TGI (HOP-62 NSCLC): > 100 µM | TGI (HS 578T breast): > 100 µM | TGI (SF-295 CNS): > 100 µM | TGI (CCRF-CEM leukemia): > 100 µM | TGI (TK-10 renal): > 72.3 µM
